Structures can show the parent of a compound that is named as a salt.
System: Maillard reaction
Assay: Inhibitory effect on Maillard reaction in vitro (BSA + glucose incubation, fluorescence)
Format: biochemical
Conditions: 6mM test compound, 100 mg/ml bovine serum albumin (BSA), 200 mM glucose, 0.5 M phosphatic buffer pH 7.38, a week at 37°C; fluorescence excitation 360nm, emission 450 nm
Protocol: In order to evaluate the inhibitory effect on Maillard reaction in vitro, of the compounds in the present invention, the measurement was carried out under conditions described below.
After incubation, the incubated medium was diluted 100 times with the same phosphatic buffer solution, and the fluorescence spectrum was measured at the excitation maximum of 360nm and the emission maximum of 450 nm.
Inhibition percentage of the test compounds was calculated by the following equation: [formula] ΔI₁ : fluorescence of test compounds ΔI₂ : fluorescence of (test compounds + glucose), ΔI₃ : fluorescence of (test compounds + BSA), ΔI₄ : fluorescence of (test compounds + BSA + glucose), ΔI : fluorescence of (BSA + glucose)

| SMILES | Inhibitory effect (%) (6mM) |
| --- | --- |
| NC(N)=O [Urea, reference compound] | 28 |
| Cl.NNC(=O)NCc1ccccc1 [1(f), 4-benzylsemicarbazide hydrochloride] | 90 |
| CN(N)C(=O)Nc1ccccc1.Cl [1(q), 2-methyl-4-phenylsemicarbazide hydrochloride] | 74 |
| NNC(=O)NC1CCCCC1 [1(a), 4-cyclohexyl semicarbozide] | 100 |
| Cl.Cl.NNC(=O)NCCCCCCNC(=O)NN [1(i), 4-[6-(3-aminoureido)hexyl]semicarbazide dihydrochloride] | 100 |
| NNC(=O)Nc1cccc2ccccc12 [1(j), 4-(1-naphthyl) semicorbazide hydrochloride] | 100 |
| Cl.NNC(=O)Nc1ccc(Cl)cc1 [1(e), 4-(4-chlorophenyl) semicarbazide hydrochloride] | 65 |
| CC(=O)NN [acetohydrazide] | 35 |
| NNC(=O)C1CCCC1 [2(i), cyclopentancarbonylhydrozine] | 37 |
| NNC(=O)CCc1ccccc1 [2(f), 3-phenylpropionohydrazide] | 100 |
| NNC(=O)c1ccccc1N [Example 2(a), 2-aminobenzohydrazide] | 100 |
